Test results: ChEMBL document CHEMBL1909046, “DrugMatrix in vitro pharmacology data”

Key:
[1] = biological target: T1, Angiotensin-converting enzyme (Oryctolagus cuniculus, UniProt P12822); experiment: biochemical; assay type: tissue-based, Lung;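 note: enzymatic inhibition of angiotensin-converting enzyme measured with FAPGG as the substrate; in other assays of this panel Not Active means under 50% inhibition at 10 µM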
T1 sequence (P12822 whole entry): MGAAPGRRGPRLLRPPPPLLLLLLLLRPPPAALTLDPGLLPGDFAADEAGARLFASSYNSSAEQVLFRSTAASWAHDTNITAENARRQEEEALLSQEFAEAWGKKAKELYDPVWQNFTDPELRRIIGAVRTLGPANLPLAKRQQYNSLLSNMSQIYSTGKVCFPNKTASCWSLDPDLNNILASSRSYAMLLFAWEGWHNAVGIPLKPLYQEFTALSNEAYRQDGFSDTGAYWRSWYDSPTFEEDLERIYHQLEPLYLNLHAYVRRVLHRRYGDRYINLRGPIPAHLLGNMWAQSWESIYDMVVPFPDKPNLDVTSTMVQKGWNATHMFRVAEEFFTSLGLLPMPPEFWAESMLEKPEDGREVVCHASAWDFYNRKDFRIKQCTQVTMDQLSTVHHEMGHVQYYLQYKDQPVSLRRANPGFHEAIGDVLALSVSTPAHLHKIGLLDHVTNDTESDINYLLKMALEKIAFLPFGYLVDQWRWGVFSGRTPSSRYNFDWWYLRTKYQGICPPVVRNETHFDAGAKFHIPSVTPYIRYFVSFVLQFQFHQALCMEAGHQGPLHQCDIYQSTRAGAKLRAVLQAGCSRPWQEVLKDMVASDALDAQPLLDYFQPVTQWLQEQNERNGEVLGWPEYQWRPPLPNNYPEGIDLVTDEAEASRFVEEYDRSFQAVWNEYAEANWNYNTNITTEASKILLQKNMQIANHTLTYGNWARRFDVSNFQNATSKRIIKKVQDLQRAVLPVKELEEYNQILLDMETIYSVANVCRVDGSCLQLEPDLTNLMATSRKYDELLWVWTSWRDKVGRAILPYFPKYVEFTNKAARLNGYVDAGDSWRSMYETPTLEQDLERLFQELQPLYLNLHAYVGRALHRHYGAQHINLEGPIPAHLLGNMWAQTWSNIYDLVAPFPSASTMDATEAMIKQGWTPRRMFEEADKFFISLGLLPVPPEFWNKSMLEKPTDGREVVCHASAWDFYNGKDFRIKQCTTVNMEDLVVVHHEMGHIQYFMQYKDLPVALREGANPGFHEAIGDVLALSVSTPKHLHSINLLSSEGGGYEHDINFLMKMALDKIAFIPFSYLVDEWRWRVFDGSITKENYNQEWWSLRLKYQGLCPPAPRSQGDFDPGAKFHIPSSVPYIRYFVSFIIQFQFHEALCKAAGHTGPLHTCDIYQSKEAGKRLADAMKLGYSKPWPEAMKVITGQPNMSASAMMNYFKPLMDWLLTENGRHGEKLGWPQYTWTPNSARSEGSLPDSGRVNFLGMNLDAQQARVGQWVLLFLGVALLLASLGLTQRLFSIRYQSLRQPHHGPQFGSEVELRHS

Interstitial collagenase = biological target: T2, Interstitial collagenase (Homo sapiens, UniProt P03956); assay type: tissue-based, Rheumatoid synovial fibroblasts;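 note: MMP-1 enzyme inhibition assay using a peptide substrate; in other assays of this panel Not Active means under 50% inhibition at 10 µM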
T2 sequence (P03956 whole entry): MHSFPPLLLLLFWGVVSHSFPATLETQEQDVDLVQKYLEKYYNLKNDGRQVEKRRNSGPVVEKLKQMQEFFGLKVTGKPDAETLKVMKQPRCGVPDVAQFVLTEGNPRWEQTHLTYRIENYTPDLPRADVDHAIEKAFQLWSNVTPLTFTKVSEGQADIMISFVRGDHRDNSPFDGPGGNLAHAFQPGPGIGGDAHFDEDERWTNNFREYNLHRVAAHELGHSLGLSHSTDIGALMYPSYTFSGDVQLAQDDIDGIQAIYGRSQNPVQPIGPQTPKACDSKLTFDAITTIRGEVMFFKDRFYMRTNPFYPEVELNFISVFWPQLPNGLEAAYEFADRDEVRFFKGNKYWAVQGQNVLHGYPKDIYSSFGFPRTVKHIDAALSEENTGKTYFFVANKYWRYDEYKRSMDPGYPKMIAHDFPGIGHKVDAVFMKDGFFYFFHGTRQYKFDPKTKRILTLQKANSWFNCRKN

[2] = biological target: Mitogen-activated protein kinase 3 (Homo sapiens, UniProt P27361); experiment: DRUGMATRIX: Protein Serine/Threonine Kinase, ERK1 enzyme inhibition (substrate: Myelin Basic Protein); set-up: species or system Escherichia coli; details: Not Active = under 50% inhibition at 10 µM
[3] = biological target: Epidermal growth factor receptor (Homo sapiens, UniProt P00533); experiment: DRUGMATRIX: Protein Tyrosine Kinase, EGF Receptor enzyme inhibition (substrate: Poly(Glu:Tyr)); assay type: cell-based, Insect cells; details: insect cells, Not Active = under 50% inhibition at 10 µM
[4] = biological target: Beta-2 adrenergic receptor (Homo sapiens, UniProt P07550); experiment: DRUGMATRIX: Adrenergic beta2 radioligand binding (ligand: [3H] CGP-12177); assay type: cell membranes, Membrane; details: cho; Not Active = under 50% inhibition at 10 µM
Insulin receptor = Insulin receptor (Rattus norvegicus, UniProt P15127); assay type: cell membranes, Wistar, Liver, Membrane; note: in other assays of this panel Not Active means under 50% inhibition at 10 µM
Glucocorticoid receptor = biological target: T3, Glucocorticoid receptor (Homo sapiens, UniProt P04150); details: hela s3; note: in other assays of this panel Not Active means under 50% inhibition at 10 µM
T3 sequence (P04150 whole entry): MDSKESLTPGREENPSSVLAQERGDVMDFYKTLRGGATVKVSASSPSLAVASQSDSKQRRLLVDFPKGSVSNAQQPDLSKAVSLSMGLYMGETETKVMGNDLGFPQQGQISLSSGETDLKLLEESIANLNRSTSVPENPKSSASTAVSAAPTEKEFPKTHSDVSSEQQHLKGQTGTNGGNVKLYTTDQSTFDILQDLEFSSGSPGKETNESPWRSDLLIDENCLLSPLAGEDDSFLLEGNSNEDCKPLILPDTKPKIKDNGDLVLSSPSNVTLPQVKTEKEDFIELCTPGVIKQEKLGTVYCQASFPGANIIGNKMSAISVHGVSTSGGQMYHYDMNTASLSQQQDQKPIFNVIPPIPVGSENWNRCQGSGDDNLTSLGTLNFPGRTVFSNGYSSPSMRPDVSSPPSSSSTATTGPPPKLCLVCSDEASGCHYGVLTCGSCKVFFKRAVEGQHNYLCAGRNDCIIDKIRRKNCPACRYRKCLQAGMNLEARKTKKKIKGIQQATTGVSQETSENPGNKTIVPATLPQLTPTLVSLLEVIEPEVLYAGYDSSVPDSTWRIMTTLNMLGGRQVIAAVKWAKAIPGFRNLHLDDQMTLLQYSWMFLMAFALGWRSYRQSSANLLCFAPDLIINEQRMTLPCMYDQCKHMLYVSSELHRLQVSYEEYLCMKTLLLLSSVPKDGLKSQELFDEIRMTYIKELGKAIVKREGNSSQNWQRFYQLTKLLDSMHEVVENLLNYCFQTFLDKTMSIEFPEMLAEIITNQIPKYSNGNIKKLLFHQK

Melanocortin receptor 3 = Melanocortin receptor 3 (Homo sapiens, UniProt P41968); assay type: cell membranes, Membrane; details: hek293; note: in other assays of this panel Not Active means under 50% inhibition at 10 µM
Chain of Melanocortin receptor 3 (P41968 whole entry): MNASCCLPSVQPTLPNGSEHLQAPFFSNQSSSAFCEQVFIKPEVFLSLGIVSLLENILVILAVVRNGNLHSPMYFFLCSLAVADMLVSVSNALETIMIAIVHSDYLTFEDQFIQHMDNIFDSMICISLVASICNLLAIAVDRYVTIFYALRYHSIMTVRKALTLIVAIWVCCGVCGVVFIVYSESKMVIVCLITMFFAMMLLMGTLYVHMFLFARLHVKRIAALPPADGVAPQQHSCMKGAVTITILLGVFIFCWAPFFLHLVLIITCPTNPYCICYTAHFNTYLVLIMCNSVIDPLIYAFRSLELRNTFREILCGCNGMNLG

Chain of Mitogen-activated protein kinase 3 (P27361 whole entry): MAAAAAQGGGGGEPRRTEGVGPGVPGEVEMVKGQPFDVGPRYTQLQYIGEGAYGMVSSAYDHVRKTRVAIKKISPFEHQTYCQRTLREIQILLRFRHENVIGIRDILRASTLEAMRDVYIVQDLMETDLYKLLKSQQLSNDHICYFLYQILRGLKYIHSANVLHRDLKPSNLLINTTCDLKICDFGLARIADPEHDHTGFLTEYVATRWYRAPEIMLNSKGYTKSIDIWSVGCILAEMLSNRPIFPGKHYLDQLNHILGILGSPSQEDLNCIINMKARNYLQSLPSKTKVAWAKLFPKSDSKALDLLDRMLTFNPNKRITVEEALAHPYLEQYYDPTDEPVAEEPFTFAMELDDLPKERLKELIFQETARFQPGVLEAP
Chain of Insulin receptor (P15127 27-759 limits assumed): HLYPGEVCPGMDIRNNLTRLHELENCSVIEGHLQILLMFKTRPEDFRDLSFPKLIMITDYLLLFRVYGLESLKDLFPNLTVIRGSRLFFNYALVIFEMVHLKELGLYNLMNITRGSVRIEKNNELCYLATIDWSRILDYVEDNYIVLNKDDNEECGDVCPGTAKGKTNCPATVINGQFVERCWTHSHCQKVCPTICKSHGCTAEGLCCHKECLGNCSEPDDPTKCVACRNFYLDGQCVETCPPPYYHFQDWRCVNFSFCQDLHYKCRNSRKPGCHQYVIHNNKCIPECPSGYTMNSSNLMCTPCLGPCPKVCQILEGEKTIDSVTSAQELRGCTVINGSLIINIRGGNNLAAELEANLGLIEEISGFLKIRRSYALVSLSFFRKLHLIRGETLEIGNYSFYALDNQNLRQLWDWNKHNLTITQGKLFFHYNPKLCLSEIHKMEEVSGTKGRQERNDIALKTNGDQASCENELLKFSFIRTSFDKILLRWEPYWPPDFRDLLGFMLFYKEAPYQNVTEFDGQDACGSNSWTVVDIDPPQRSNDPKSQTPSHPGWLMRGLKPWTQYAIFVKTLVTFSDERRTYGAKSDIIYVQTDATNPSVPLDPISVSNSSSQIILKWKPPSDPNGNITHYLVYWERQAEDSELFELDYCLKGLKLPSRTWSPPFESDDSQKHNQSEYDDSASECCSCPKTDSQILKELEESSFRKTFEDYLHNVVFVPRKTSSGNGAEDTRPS
Chain of Insulin receptor (P15127 764-1383 limits assumed): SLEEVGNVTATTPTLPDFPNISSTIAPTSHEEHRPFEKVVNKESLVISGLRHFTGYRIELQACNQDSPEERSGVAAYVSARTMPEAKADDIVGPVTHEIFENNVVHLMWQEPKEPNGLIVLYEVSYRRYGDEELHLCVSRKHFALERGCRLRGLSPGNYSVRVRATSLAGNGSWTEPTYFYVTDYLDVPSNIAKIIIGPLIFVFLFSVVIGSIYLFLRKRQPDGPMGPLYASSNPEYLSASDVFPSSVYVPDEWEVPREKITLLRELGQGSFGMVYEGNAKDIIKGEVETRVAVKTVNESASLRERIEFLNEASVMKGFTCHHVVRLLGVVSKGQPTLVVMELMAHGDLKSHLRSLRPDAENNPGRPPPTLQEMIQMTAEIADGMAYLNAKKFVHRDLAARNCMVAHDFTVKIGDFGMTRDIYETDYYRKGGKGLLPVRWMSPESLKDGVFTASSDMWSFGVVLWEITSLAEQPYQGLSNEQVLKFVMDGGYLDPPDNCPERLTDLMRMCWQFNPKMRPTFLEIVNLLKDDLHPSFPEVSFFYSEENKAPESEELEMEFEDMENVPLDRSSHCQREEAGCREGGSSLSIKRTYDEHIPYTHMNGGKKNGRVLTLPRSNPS

Compound	IC50 [1]	IC50 (Interstitial collagenase)	IC50 [2]	IC50 [3]	IC50 [4]	IC50 (Insulin receptor)	IC50 (Glucocorticoid receptor)	IC50 (Melanocortin receptor 3)	Ki [1]	Ki (Interstitial collagenase)	Ki [2]	Ki [4]	Ki (Insulin receptor)	Ki (Glucocorticoid receptor)	Ki (Melanocortin receptor 3)	IC50 ([2]; read-out: IC50)	IC50 ([3]; read-out: IC50)
O=c1cc(-c2ccccc2)oc2c1ccc1ccccc12 [ALPHA-NAPHTHOFLAVONE]	Not Active	Not Active	Not Active	Not Active	Not Active	Not Active	Not Active	Not Active	–	–	–	–	–	–	–	–	–
O=C1OCCN1/N=C/c1ccc([N+](=O)[O-])o1 [FURAZOLIDONE]	Not Active	Not Active	Not Active	Not Active	Not Active	Not Active	Not Active	Not Active	–	–	–	–	–	–	–	–	–
CNC(=O)Oc1ccc2c(c1)[C@]1(C)CCN(C)[C@@H]1N2C [PHYSOSTIGMINE]	Not Active	Not Active	Not Active	Not Active	Not Active	Not Active	Not Active	Not Active	–	–	–	–	–	–	–	–	–
CCCC[C@@H](CC)COC(=O)c1ccccc1C(=O)OC[C@@H](CC)CCCC [BIS(2-ETHYLHEXYL)PHTHALATE]	Not Active	Not Active	Not Active	Not Active	Not Active	Not Active	Not Active	Not Active	–	–	–	–	–	–	–	–	–
CC[N+](CC)(CC)CCOc1cccc(OCC[N+](CC)(CC)CC)c1OCC[N+](CC)(CC)CC.[I-].[I-].[I-] [GALLAMINE TRIETHIODIDE]	Not Active	Not Active	Not Active	Not Active	Not Active	Not Active	Not Active	Not Active	–	–	–	–	–	–	–	–	–
CN(C)[C@@H]1C(O)=C(C(N)=O)C(=O)[C@@]2(O)C(O)=C3C(=O)c4c(O)cccc4[C@@](C)(O)[C@H]3[C@H](O)[C@@H]12 [OXYTETRACYCLINE]	Not Active	Not Active	Not Active	Not Active	Not Active	Not Active	Not Active	Not Active	–	–	–	–	–	–	–	–	–
NS(=O)(=O)c1cc2c(cc1Cl)NCNS2(=O)=O [HYDROCHLOROTHIAZIDE]	Not Active	Not Active	Not Active	Not Active	Not Active	Not Active	Not Active	Not Active	–	–	–	–	–	–	–	–	–
Fc1ccc([C@@H]2CCNC[C@H]2COc2ccc3c(c2)OCO3)cc1 [PAROXETINE]	Not Active	Not Active	Not Active	Not Active	Not Active	Not Active	Not Active	Not Active	–	–	–	–	–	–	–	–	–
GOLD SODIUM THIOMALATE	Not Active	Not Active	Not Active	–	Not Active	Not Active	Not Active	Not Active	Not Active	Not Active	Not Active	Not Active	Not Active	Not Active	Not Active	–	–
CISPLATIN	Not Active	Not Active	–	–	Not Active	Not Active	Not Active	Not Active	Not Active	Not Active	–	Not Active	Not Active	Not Active	Not Active	4.62 µM	2.62 µM
CNCCC=C1c2ccccc2CCc2ccccc21 [NORTRIPTYLINE]	Not Active	Not Active	Not Active	Not Active	Not Active	Not Active	Not Active	Not Active	–	–	–	–	–	–	–	–	–
CN1C[C@H](C(=O)N[C@]2(C)O[C@@]3(O)[C@@H]4CCCN4C(=O)[C@H](Cc4ccccc4)N3C2=O)C=C2c3cccc4[nH]cc(c34)C[C@H]21 [ERGOTAMINE]	Not Active	Not Active	Not Active	Not Active	–	Not Active	Not Active	Not Active	–	–	–	–	–	–	–	–	–
CC(C)NC[C@H](O)COc1cccc2[nH]ccc12	Not Active	Not Active	Not Active	Not Active	–	Not Active	Not Active	Not Active	–	–	–	–	–	–	–	–	–
COc1c(N2CCNC(C)C2)c(F)cc2c(=O)c(C(=O)O)cn(C3CC3)c12 (stereo unspecified) [GATIFLOXACIN]	Not Active	Not Active	Not Active	–	Not Active	Not Active	Not Active	Not Active	–	–	–	–	–	–	–	–	–
